Test system: NI16 promoter fragment 962 bp
Assay: GUS florescence assay of promoter::GUS plants after SA application, NI16 962 bp fragment
Format: in vivo, Arabidopsis
Conditions: 5 mM SA spray
Description: A binary promoter::reporter plasmid (pNOV2374) for Arabidopsis transformation was constructed. The regulatory/promoter sequence was fused to the GUS reporter gene (Jefferson et al. (1987) EMBO J 6: 3901-3907) by recombination using […] Technology according to the manufacturer's protocol as described in the Instruction Manual (LifeTechnologies, Rockville, Md.). The construct was then transformed into Agrobacterium tumefaciens strains by electroporation. pNOV2374 is a binary vector with a VS1 origin of replication, a copy of the Agrobacterium virg gene in the backbone, and a Basta® resistance selectable marker cassette between the left and right border sequences of the T-DNA. The Basta® selectable marker cassette comprises the Agrobacterium tumefaciens manopine synthase promoter (AtMas) (Barker et al., Plant Mol. Biol. 2, 335-350 (1983)) operably linked to the gene encoding Basta® resistance (i.e., the “BAR” gene, phosphinothricin acetyl transferase) (White et al., Nucl Acids Res 18: 1062 (1990)) and the 35S terminator. The AtMas promoter, the BAR coding sequence, and the 35S terminator are located at nt 4211 to nt 4679, nt 4680 to nt 5228, and nt 5263 to nt 5488, respectively, of pNOV2374. The vector contains […] recombination components, which were introduced into the binary vector backbone by ligating a blunt-ended cassette containing attR sites, ccdB, and a cholramphenicol resistance marker using the […] Vector Conversion System (LifeTechnologies, Rockville, Md.). The […] cassette was located between nt 126 and 1818 of pNOV2374. The promoter cassettes were inserted through an LR recombination reaction whereby the DNA sequence of pNOV2374 between nt 126 and nt 1818 were removed and replaced with the promoter of interest flanked by att sequences. […] The GIG gene (SEQ ID NO:29) contains the ST-LS1 intron from Solanum tuberosum at nt 385 to nt 576 of GUS (obtained from Dr. Stanton […], Purdue University, and described in Narasimhulu, et al. (1996) Plant Cell 8: 873-886.). […] The treatment was applied as a fine mist to the leaves. […] For quantitative analysis of promoter activity following induction treatments or in various Arabidopsis tissues and organs, GUS expression is measured florometrically. Tissue samples were harvested and ground in ice cold GUS extraction buffer (50 mM Na2HPO4 pH 7.0, 5 mM DTT, 1 mM Na2EDTA, 0.1% TritonX100, 0.1% sarcosyl). Ground samples were spun in a microfuge at 10,000 rpm for 15 minutes at 4° C. Following centrifugation, the supernatant was removed for the GUS assay and for a protein concentration determination. To measure GUS activity, the plant extract was assayed in GUS assay buffer (50 mM Na2HPO4 pH 7.0, 5 mM DTT, 1 mM Na2EDTA, 0.1% TritonX100, 0.1% sarcosyl, 1 mM 4-Methylumbelliferyl-beta-D-glucuronic acid dihydrate (MUG)), pre-warmed to 37° C. Reactions were incubated, and 100 uL aliquots were removed at 10 minute intervals over 30 minutes to stop the reaction by adding the 100 uL aliquots to tubes containing 900 uL of 2% Na2CO3. The stopped reactions were then read on a Tecan Spectroflourometer at 365 nm excitation and 455 emission wavelengths. Protein concentrations were determined using the BCA assay following the manufacturer's protocol. GUS activity is expressed as pmol MU/mg protein/min.

SMILES: O=C(O)c1ccccc1O [SA, salicylic acid]
- GUS Activity Induced by SA (2 h): 86.8 pmol/mg protein/min
- GUS activity Fold-change relative to T0 (uninduced) (2 h): 2.2 fold
- GUS Activity Induced by SA (4 h): 260.8 pmol/mg protein/min
- GUS activity Fold-change relative to T0 (uninduced) (4 h): 6.6 fold
- GUS Activity Induced by SA (8 h): 467.7 pmol/mg protein/min
- GUS Activity Induced by SA (24 h): 1457.5 pmol/mg protein/min
- GUS activity Fold-change relative to T0 (uninduced) (24 h): 36.7 fold

— patent US7199286B2, “Plant-derived novel pathogen and SAR-induction chemical induced promoters, and fragments thereof” (Syngenta Participations AG, priority 1999, dated 2007)
